Source: PubChem BioAssay AID1259408 (Genetic Toxicology Data Bank (GENE-TOX), 2018)
The source made the active and inactive calls. The rule behind the calls is not given here.

Test system: GENE-TOX genotoxicity assays, various organisms and cells
Assay: GENE-TOX mutagenicity studies
[1] = Species/Cell Type: Salmonella typhimurium (one or more of the five standard strains: TA98, TA100, TA1535, TA1537, and TA1538), Assay Type: Histidine reverse gene mutation, Ames assay, Assay Code: SALT, Evaluation Type: Evaluation A (Pre-1980)
[2] = Species/Cell Type: Salmonella typhimurium (one or more of the five standard strains: TA98, TA100, TA1535, TA1537, and TA1538), Assay Type: Histidine reverse gene mutation, Ames assay, Assay Code: SAL+, Evaluation Type: Evaluation A (Pre-1980)
[3] = Species/Cell Type: Bacillus subtilis (H17 vs M45), Assay Type: Rec-assay, spot test, DNA effects (bacterial DNA repair), Assay Code: REWT, Evaluation Type: Evaluation A (Pre-1980)
[4] = Species/Cell Type: Bacillus subtilis (H17 vs M45T), Assay Type: Rec-assay, spot test, DNA effects (bacterial DNA repair), Assay Code: REXT, Evaluation Type: Evaluation A (Pre-1980)
[5] = Species/Cell Type: Mammalian polychromatic erythrocytes, Assay Type: Micronucleus test, chromosome aberrations, Assay Code: MNT+, Evaluation Type: Evaluation B (Post-1980)
[6] = Species/Cell Type: Drosophila melanogaster, Assay Type: Sex-linked recessive lethal gene mutation, Assay Code: SRLT, Evaluation Type: Evaluation A (Pre-1980)

C[C@]12CCC(=O)C=C1CC[C@@H]1[C@@H]2CC[C@@]2(C)[C@H]1CC[C@]2(C)O
mutagenic call (Species/Cell Type: Human, Sex: Male, Assay Type: Sperm morphology, Assay Code: SPH-, Evaluation Type: Evaluation A (Pre-1980)): inactive; negative

Nc1ccc(N)c(N)c1
mutagenic call (Species/Cell Type: Mouse, Sex: Male, Assay Type: Sperm morphology, Assay Code: SPI-, Evaluation Type: Evaluation A (Pre-1980)): inactive; negative | mutagenic call [1]: no conclusion

CCNC(=O)[C@@H]1CCCN1C(=O)[C@H](CCCN=C(N)N)NC(=O)[C@H](CC(C)C)NC(=O)[C@@H](Cc1c[nH]c2ccccc12)NC(=O)[C@H](Cc1ccc(O)cc1)NC(=O)[C@H](CO)NC(=O)[C@H](Cc1c[nH]c2ccccc12)NC(=O)[C@H](Cc1cnc[nH]1)NC(=O)[C@@H]1CCC(=O)N1
mutagenic call (Species/Cell Type: Human, Sex: Male, Assay Type: Sperm morphology, Assay Code: SPH+, Evaluation Type: Evaluation A (Pre-1980)): active; positive

COc1ccc(Cl)cc1C(=O)NCCc1ccc(S(=O)(=O)NC(=O)NC2CCCCC2)cc1
mutagenic call (Species/Cell Type: Mammalian polychromatic erythrocytes, Assay Type: Micronucleus test, chromosome aberrations, Assay Code: MNTT, Evaluation Type: Evaluation B (Post-1980)): no conclusion | mutagenic call (Species/Cell Type: Nonhuman, Assay Type: Sister-chromatid exchange (SCE) in vivo, Assay Code: SC3T, Evaluation Type: Evaluation B (Post-1980)): no conclusion

O=S1(=O)OCCCO1
mutagenic call [2]: active; positive | mutagenic call (Species/Cell Type: Salmonella typhimurium, Assay Type: Forward and reverse gene mutation, host-mediated assay, Assay Code: HMA+, Evaluation Type: Evaluation A (Pre-1980)): active; positive

CNC(=O)c1c(I)c(NC(C)=O)c(I)c(C(=O)O)c1I
mutagenic call (Species/Cell Type: Human lymphocytes, Assay Type: Sister-chromatid exchange (SCE) in vitro, Assay Code: SCL+D, Dose Response: With dose response, Evaluation Type: Evaluation B (Post-1980)): active; positive | mutagenic call (Species/Cell Type: Human, Assay Type: Sister-chromatid exchange (SCE) in vitro, Assay Code: SC1+D, Dose Response: With dose response, Evaluation Type: Evaluation B (Post-1980)): active; positive

COC(=O)COc1ccc(Br)cc1CSC(=N)N
mutagenic call (Species/Cell Type: Saccharomyces cerevisiae, Assay Type: Reverse gene mutation, Assay Code: YERT, Evaluation Type: Evaluation A (Pre-1980)): no conclusion

C1COCCO1
call (Species/Cell Type: Nonhuman, Assay Type: In vivo carcinogenicity studies, Assay Code: CCG+, Evaluation Type: Evaluation A (Pre-1980)): active; positive | mutagenic call (Species/Cell Type: Syrian hamster embryo (SA7/SHE) cells, Assay Type: Cell transformation, viral enhanced, Assay Code: CT7-, Evaluation Type: Evaluation A (Pre-1980)): inactive; negative

CCN(Cc1cccc(S(=O)(=O)O)c1)c1ccc(C(=C2C=CC(=[N+](CC)Cc3cccc(S(=O)(=O)O)c3)C=C2)c2ccc(O)cc2S(=O)(=O)[O-])cc1
mutagenic call [3]: no conclusion | mutagenic call [4]: no conclusion | mutagenic call [5]: active; positive | mutagenic call (Species/Cell Type: Saccharomyces cerevisiae, Assay Type: Mitotic recombination or gene conversion, Assay Code: YEC-, Evaluation Type: Evaluation A (Pre-1980)): inactive; negative | mutagenic call (Species/Cell Type: Salmonella typhimurium (one or more of the five standard strains: TA98, TA100, TA1535, TA1537, and TA1538), Assay Type: Histidine reverse gene mutation, Ames assay, Assay Code: SAL-, Evaluation Type: Evaluation A (Pre-1980)): inactive; negative

C[C@@H]1C[C@@]2(O[C@H]2C)C(=O)O[C@@H]2CCN3CC=C(COC(=O)[C@]1(C)O)[C@H]23
mutagenic call (Species/Cell Type: Allium cepa, Assay Type: Chromosome aberrations, Assay Code: ALC+, Evaluation Type: Evaluation A (Pre-1980)): active; positive | mutagenic call [6]: no conclusion

O=[N+]([O-])c1cccc2cc[nH]c12
mutagenic call [2]: active; positive

O=NN1CN2CN(C1)CN(N=O)C2
mutagenic call (Species/Cell Type: Mammalian polychromatic erythrocytes, Assay Type: Micronucleus test, chromosome aberrations, Assay Code: MNTT, Evaluation Type: Evaluation A (Pre-1980)): no conclusion | mutagenic call (Species/Cell Type: Mouse embryo (AKR/ME) cells, Assay Type: Cell transformation, Assay Code: CTK-, Evaluation Type: Evaluation A (Pre-1980)): inactive; negative | mutagenic call (Species/Cell Type: Nonhuman, Assay Type: Sister-chromatid exchange (SCE) in vitro, Assay Code: SC2+D, Dose Response: With dose response, Evaluation Type: Evaluation B (Post-1980)): active; positive

CN(C)c1ccc(/C=C/c2ccccc2)cc1
mutagenic call [6]: no conclusion

CCCO
mutagenic call (Species/Cell Type: Nonhuman, Assay Type: Sister-chromatid exchange (SCE) in vitro, Assay Code: SC2-, Evaluation Type: Evaluation A (Pre-1980)): inactive; negative

C=CCOc1ccccc1OCC(O)CNC(C)C (stereo not given)
mutagenic call [5]: active; positive

Cc1ccc(N=Nc2c(O)ccc3ccccc23)c(C)c1
mutagenic call [4]: no conclusion | mutagenic call (Species/Cell Type: Salmonella typhimurium (one or more of the five standard strains: TA98, TA100, TA1535, TA1537, and TA1538), Assay Type: Histidine reverse gene mutation, Ames assay, Assay Code: SAL+*, Activation: With metabolic activation, Evaluation Type: Evaluation A (Pre-1980)): active; positive

CCN(CCCl)CCCNc1c2ccccc2nc2ccccc12
mutagenic call (Species/Cell Type: Chinese hamster ovary (CHO) cells, Assay Type: Forward gene mutation at the HPRT locus, Assay Code: CHO+, Evaluation Type: Evaluation B (Post-1980)): active; positive

C=CBr
mutagenic call (Species/Cell Type: Tradescantia species, Assay Type: Gene mutation, Assay Code: TRM+D, Dose Response: With dose response, Evaluation Type: Evaluation A (Pre-1980)): active; positive

O=C(O)c1c(Cl)c(Cl)c(Cl)c(Cl)c1-c1c2cc(Br)c(=O)c(Br)c-2oc2c(Br)c(O)c(Br)cc12
mutagenic call [3]: no conclusion

O=CCC=O
mutagenic call [1]: no conclusion

C#C[C@@]1(O)CC[C@@H]2[C@H]3CCC4=CC(=O)CC[C@H]4[C@@H]3CC[C@]21CC
mutagenic call (Species/Cell Type: Rabbit, Sex: Male, Assay Type: Sperm morphology, Assay Code: SPR-, Evaluation Type: Evaluation A (Pre-1980)): inactive; negative

C[C@H](N)C(=O)c1ccccc1
mutagenic call [5]: active; positive
